Assay results reported in the supplement of paper PMC10307832.

Key:
Test in all cases: relative viability (nuclei count vs DMSO), 5 days (fraction); higher = more cells survive
IPA-3 + Trametinib = compound: C1=CC=C2C(=C1)C=CC(=C2SSC3=C(C=CC4=CC=CC=C43)O)O [IPA-3] + CC(=O)Nc1cccc(-n2c(=O)n(C3CC3)c(=O)c3c(Nc4ccc(I)cc4F)n(C)c(=O)c(C)c32)c1 [Trametinib] (partner 0.02 µM)
In short: (§1)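 Values are medians from duplicate plates. Each reflects relative viability, defined as the nuclei count of treated wells over that of vehicle wells. Lung cancer cell lines in 1536-well plates were pin-tool dosed one day after seeding with one drug alone or with a fixed anchor-drug dose plus five library-drug doses (not always all listed) in √10 steps, then fixed, stained and imaged at 4× after 5 days.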

IPA-3 + Crizotinib = compound: C1=CC=C2C(=C1)C=CC(=C2SSC3=C(C=CC4=CC=CC=C43)O)O [IPA-3] + C[C@@H](Oc1cc(-c2cnn(C3CCNCC3)c2)cnc1N)c1c(Cl)ccc(F)c1Cl [Crizotinib] (partner 1 µM)
In short: as §1

Doramapimod + Pictilisib = compound: Cc1ccc(-n2nc(C(C)(C)C)cc2NC(=O)Nc2ccc(OCCN3CCOCC3)c3ccccc23)cc1 [Doramapimod] + CS(=O)(=O)N1CCN(Cc2cc3nc(-c4cccc5[nH]ncc45)nc(N4CCOCC4)c3s2)CC1 [Pictilisib] (partner 1 µM)
In short: as §1

Doramapimod + Olaparib = compound: Cc1ccc(-n2nc(C(C)(C)C)cc2NC(=O)Nc2ccc(OCCN3CCOCC3)c3ccccc23)cc1 [Doramapimod] + O=C(c1cc(Cc2n[nH]c(=O)c3ccccc23)ccc1F)N1CCN(C(=O)C2CC2)CC1 [Olaparib] (partner 8 µM)
In short: as §1

Row | Cell Line | relative viability (IPA-3 + Trametinib; first compound 0.2 µM) | relative viability (IPA-3 + Trametinib; first compound 0.6325 µM) | relative viability (IPA-3 + Trametinib; first compound 2 µM) | relative viability (IPA-3 + Trametinib; first compound 6.325 µM) | relative viability (IPA-3 + Trametinib; first compound 20 µM) | relative viability (IPA-3 + Crizotinib; first compound 0.2 µM) | relative viability (IPA-3 + Crizotinib; first compound 0.6325 µM) | relative viability (IPA-3 + Crizotinib; first compound 2 µM) | relative viability (IPA-3 + Crizotinib; first compound 6.325 µM) | relative viability (IPA-3 + Crizotinib; first compound 20 µM) | relative viability (Doramapimod + Pictilisib; first compound 0.02 µM) | relative viability (Doramapimod + Pictilisib; first compound 0.06325 µM) | relative viability (Doramapimod + Pictilisib; first compound 0.2 µM) | relative viability (Doramapimod + Pictilisib; first compound 0.6325 µM) | relative viability (Doramapimod + Pictilisib; first compound 2 µM) | relative viability (Doramapimod + Olaparib; first compound 0.02 µM) | relative viability (Doramapimod + Olaparib; first compound 0.06325 µM) | relative viability (Doramapimod + Olaparib; first compound 0.2 µM) | relative viability (Doramapimod + Olaparib; first compound 0.6325 µM) | relative viability (Doramapimod + Olaparib; first compound 2 µM)
1 | HCC-15 | 0.444 | 0.352 | 0.391 | 0.422 | 0.436 | 0.812 | 0.855 | 0.825 | 0.776 | 0.886 | 0.728 | 0.684 | 0.8 | 0.359 | 0.689 | 0.675 | 0.692 | 0.675 | 0.654 | 0.623
2 | LCLC-103H | 0.693 | 0.686 | 0.718 | 0.687 | 0.675 | 1.07 | 0.947 | 1.03 | 1.15 | 1.1 | 0.57 | 0.633 | 0.64 | 0.789 | 0.521 | 0.741 | 0.786 | 0.745 | 0.758 | 0.764
3 | NCI-H23 | 0.379 | 0.379 | 0.342 | 0.383 | 0.443 | 0.488 | 0.376 | 0.599 | 0.545 | 0.654 | 0.435 | 0.438 | 0.374 | 0.509 | 0.484 | 0.397 | 0.352 | 0.417 | 0.335 | 0.311
4 | NCI-H1792 | 0.526 | 0.504 | – | 0.407 | 0.495 | 1.14 | 1.01 | 1.01 | 0.996 | 1.16 | 0.271 | 0.234 | 0.222 | 0.254 | 0.211 | 0.408 | 0.459 | 0.457 | 0.486 | 0.268
5 | NCI-H596 | 0.842 | 0.756 | 0.861 | 0.801 | 0.818 | 1.08 | 0.597 | 1.08 | 1.1 | 1.24 | 0.417 | 0.381 | 0.407 | 0.429 | 0.355 | 0.747 | 0.695 | 0.749 | 0.73 | 0.788
6 | NCI-H460 | 0.133 | 0.145 | 0.141 | 0.129 | 0.104 | 1.07 | 0.871 | 0.908 | 0.726 | 0.62 | 0.374 | 0.383 | 0.266 | 0.548 | 0.291 | 0.453 | 0.431 | 0.422 | 0.459 | 0.419
7 | HCC-366 | 0.487 | 0.301 | 0.374 | 0.336 | 0.283 | 0.697 | 0.564 | 0.617 | 0.521 | 0.618 | 0.15 | 0.137 | 0.131 | 0.125 | 0.136 | 0.331 | 0.333 | 0.318 | 0.368 | 0.303
8 | NCI-H2085 | 0.625 | 0.602 | 0.637 | 0.577 | 0.714 | 0.89 | 0.912 | 0.876 | 0.931 | 0.995 | 0.438 | 0.424 | 0.431 | 0.45 | 0.381 | 0.886 | 0.844 | 0.756 | 0.871 | 0.823
9 | PC-14 | 1.23 | 0.654 | 0.699 | 0.634 | 0.918 | 0.938 | 0.858 | 1.08 | 0.839 | 1 | 0.636 | 0.644 | 0.645 | 0.655 | 0.616 | 0.351 | 0.36 | 0.342 | 0.281 | 0.269
10 | HOP-62 | 0.408 | 0.349 | 0.414 | 0.348 | 0.382 | 1.3 | 0.643 | 1.01 | 1.01 | 0.922 | 0.761 | 0.714 | 0.742 | 0.463 | 0.438 | 0.315 | 0.369 | 0.424 | 0.495 | 0.467
11 | NCI-H2087 | 0.235 | 0.267 | 0.178 | 0.227 | 0.271 | 0.955 | 0.755 | 0.9 | 0.791 | 0.957 | 0.754 | 0.795 | 0.83 | 0.764 | 0.847 | 0.562 | 0.577 | 0.525 | 0.675 | 0.481
12 | PC-3 [JPC-3] | 0.785 | 0.713 | 0.744 | 0.705 | 0.699 | 1.04 | 0.964 | 0.937 | 0.976 | 0.923 | 0.809 | 0.772 | 0.771 | 0.897 | 0.421 | 1.3 | 1.16 | 1.22 | 1.33 | 1.14
13 | H3255 | 0.756 | 0.573 | 0.629 | 0.554 | 0.606 | 1.11 | 0.86 | 0.962 | 0.749 | 1.03 | 0.485 | 0.495 | 0.466 | 0.545 | 0.414 | 0.591 | 0.567 | 0.573 | 0.567 | 0.539
14 | EMC-BAC-2 | 0.938 | 0.843 | 0.829 | 0.914 | 0.812 | 0.79 | 0.769 | 0.771 | 0.698 | 0.829 | 0.542 | 0.468 | 0.51 | 0.741 | 0.513 | 0.494 | 0.441 | 0.469 | 0.473 | 0.43
15 | CAL-12T | 0.505 | 0.366 | 0.232 | 0.338 | 0.457 | 0.479 | 0.6 | 0.699 | 0.516 | 0.69 | 0.456 | 0.378 | 0.463 | 0.33 | 0.392 | 0.724 | 0.711 | 0.68 | 0.758 | 0.609
16 | NCI-H650 | 1.11 | 0.973 | 0.888 | 1.1 | 1.32 | 0.824 | 0.548 | 0.627 | 0.802 | 0.909 | 0.887 | 0.818 | 0.984 | 0.982 | 0.859 | 0.468 | 0.47 | 0.403 | 0.413 | 0.395
